The text below walks through data of ChEMBL document CHEMBL1157213, “2-Amino-5-thiazolyl motif: a novel scaffold for designing anti-inflammatory agents of diverse structures” (Eur J Med Chem, 2008).

Data set [1] has as its system Rattus norvegicus. The data set can be described thus: Toxic gastric-ulcerogenic effect in Sprague-Dawley rat assessed as lesion score at 100 mg/kg, po after 7 days. Set-up: dose 100 mg/kg, route oral. It is filed as toxicity, organism-based. The following applies: in vivo, 168 h.
The target of data set [2] is T1, Prostaglandin G/H synthase 2 (Homo sapiens) (UniProt P35354).
T1 sequence (whole entry): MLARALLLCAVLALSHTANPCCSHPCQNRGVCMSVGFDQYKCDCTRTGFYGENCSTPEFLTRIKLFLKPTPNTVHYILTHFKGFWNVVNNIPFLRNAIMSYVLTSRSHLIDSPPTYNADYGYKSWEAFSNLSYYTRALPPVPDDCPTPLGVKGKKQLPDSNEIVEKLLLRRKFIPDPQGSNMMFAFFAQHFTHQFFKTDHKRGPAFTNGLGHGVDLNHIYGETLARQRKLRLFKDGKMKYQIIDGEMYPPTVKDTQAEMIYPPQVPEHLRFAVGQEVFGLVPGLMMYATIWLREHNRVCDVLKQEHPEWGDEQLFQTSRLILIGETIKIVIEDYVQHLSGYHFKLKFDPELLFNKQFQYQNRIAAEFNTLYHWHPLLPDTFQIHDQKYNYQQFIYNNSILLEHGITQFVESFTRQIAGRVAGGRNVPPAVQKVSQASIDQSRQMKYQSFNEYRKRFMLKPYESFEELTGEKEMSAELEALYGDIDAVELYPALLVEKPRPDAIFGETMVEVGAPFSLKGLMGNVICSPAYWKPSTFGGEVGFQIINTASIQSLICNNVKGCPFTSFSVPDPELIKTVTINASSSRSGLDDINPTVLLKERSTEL
In words: Inhibition of COX2 at 10 uM.

Data set [3] deals with Rattus norvegicus. In words: Antiinflammatory activity against formalin-induced chronic paw edema rat inflammatory model assessed as reduction of paw volume at 100 mg/kg, po after 4 days relative to control. It is filed as functional. The arrangement: scale not given: the % may be the effect or the level left.
Data set [4] deals with Rattus norvegicus. The data set can be described thus: Antiinflammatory activity against formalin-induced chronic paw edema rat inflammatory model assessed as reduction of paw volume at 100 mg/kg, po after 2 days relative to control. In kind it is functional. Set-up: scale not given: the % may be the effect or the level left.
Data set [5] has as its target Prostaglandin G/H synthase 1 (Homo sapiens) (UniProt P23219). The data set can be described thus: Inhibition of COX1 at 10 uM.
In data set [6] the test system is Rattus norvegicus. In words: Antiinflammatory activity against formalin-induced chronic paw edema rat inflammatory model assessed as reduction of paw volume at 100 mg/kg, po after 5 days relative to control. It is filed as functional. Set-up: scale not given: the % may be the effect or the level left.
Data set [7] deals with Rattus norvegicus. The data set can be described thus: Antiinflammatory activity against formalin-induced chronic paw edema rat inflammatory model assessed as reduction of paw volume at 100 mg/kg, po after 1 day relative to control. Set-up: scale not given: the % may be the effect or the level left. It is filed as functional.
In data set [8] the test system is Rattus norvegicus. The data set can be described thus: Antiinflammatory activity against formalin-induced chronic paw edema rat inflammatory model assessed as reduction of paw volume at 100 mg/kg, po after 3 days relative to control. It is filed as functional. Set-up: scale not given: the % may be the effect or the level left.
In data set [9] the test system is Rattus norvegicus. In words: Antiinflammatory activity against carrageenan-induced acute paw edema Sprague-Dawley rat inflammatory model assessed as reduction of paw volume at 100 mg/kg, po after 3 hrs relative to control. In kind it is functional. Set-up: scale not given: the % may be the effect or the level left. (Carrageenan injected into the paw causes an acute inflammation.)

The subject of data set [10] is Rattus norvegicus. The data set can be described thus: Antiinflammatory activity against formalin-induced chronic paw edema rat inflammatory model assessed as reduction of paw volume at 50 mg/kg, po after 5 days relative to control. In kind it is functional. Set-up: scale not given: the % may be the effect or the level left.
In data set [11] the test system is Rattus norvegicus. The data set can be described thus: Antiinflammatory activity against carrageenan-induced acute paw edema Sprague-Dawley rat inflammatory model assessed as reduction of paw volume at 50 mg/kg, po after 3 hrs relative to control. In kind it is functional. The arrangement: scale not given: the % may be the effect or the level left.
Data set [12] deals with Rattus norvegicus. The data set can be described thus: Antiinflammatory activity against formalin-induced chronic paw edema rat inflammatory model assessed as reduction of paw volume at 50 mg/kg, po after 2 days relative to control. It is filed as functional. The arrangement: scale not given: the % may be the effect or the level left.
For data set [13], the system named is Rattus norvegicus. The data set can be described thus: Antiinflammatory activity against formalin-induced chronic paw edema rat inflammatory model assessed as reduction of paw volume at 50 mg/kg, po after 4 days relative to control. It is filed as functional. The arrangement: scale not given: the % may be the effect or the level left.
Data set [14] has as its system Rattus norvegicus. In words: Antiinflammatory activity against formalin-induced chronic paw edema rat inflammatory model assessed as reduction of paw volume at 50 mg/kg, po after 3 days relative to control. In kind it is functional. The arrangement: scale not given: the % may be the effect or the level left.
Data set [15] deals with Rattus norvegicus. The data set can be described thus: Antiinflammatory activity against formalin-induced chronic paw edema rat inflammatory model assessed as reduction of paw volume at 50 mg/kg, po after 1 day relative to control. Set-up: scale not given: the % may be the effect or the level left. In kind it is functional.
The test system of data set [16] is Rattus norvegicus. In words: Antiinflammatory activity against formalin-induced chronic paw edema rat inflammatory model assessed as reduction of paw volume at 5 mg/kg, po after 4 days relative to control. In kind it is functional. The arrangement: scale not given: the % may be the effect or the level left.
Data set [17] deals with Rattus norvegicus. The data set can be described thus: Antiinflammatory activity against formalin-induced chronic paw edema rat inflammatory model assessed as reduction of paw volume at 5 mg/kg, po after 2 days relative to control. In kind it is functional. Set-up: scale not given: the % may be the effect or the level left.
Data set [18] has as its system Rattus norvegicus. In words: Antiinflammatory activity against formalin-induced chronic paw edema rat inflammatory model assessed as reduction of paw volume at 5 mg/kg, po after 1 day relative to control. It is filed as functional. Set-up: scale not given: the % may be the effect or the level left.
Data set [19] concerns Rattus norvegicus. In words: Antiinflammatory activity against carrageenan-induced acute paw edema Sprague-Dawley rat inflammatory model assessed as reduction of paw volume at 5 mg/kg, po after 3 hrs relative to control. It is filed as functional. Set-up: scale not given: the % may be the effect or the level left.
Data set [20] has as its system Rattus norvegicus. The data set can be described thus: Antiinflammatory activity against formalin-induced chronic paw edema rat inflammatory model assessed as reduction of paw volume at 5 mg/kg, po after 5 days relative to control. It is filed as functional. The arrangement: scale not given: the % may be the effect or the level left.
In data set [21] the test system is Rattus norvegicus. In words: Antiinflammatory activity against formalin-induced chronic paw edema rat inflammatory model assessed as reduction of paw volume at 5 mg/kg, po after 3 days relative to control. It is filed as functional. Set-up: scale not given: the % may be the effect or the level left.

Usually inhibition stands for the change of the read-out against control, counted positive when it falls.

Sequence of Prostaglandin G/H synthase 1 (Homo sapiens) (P23219 whole entry): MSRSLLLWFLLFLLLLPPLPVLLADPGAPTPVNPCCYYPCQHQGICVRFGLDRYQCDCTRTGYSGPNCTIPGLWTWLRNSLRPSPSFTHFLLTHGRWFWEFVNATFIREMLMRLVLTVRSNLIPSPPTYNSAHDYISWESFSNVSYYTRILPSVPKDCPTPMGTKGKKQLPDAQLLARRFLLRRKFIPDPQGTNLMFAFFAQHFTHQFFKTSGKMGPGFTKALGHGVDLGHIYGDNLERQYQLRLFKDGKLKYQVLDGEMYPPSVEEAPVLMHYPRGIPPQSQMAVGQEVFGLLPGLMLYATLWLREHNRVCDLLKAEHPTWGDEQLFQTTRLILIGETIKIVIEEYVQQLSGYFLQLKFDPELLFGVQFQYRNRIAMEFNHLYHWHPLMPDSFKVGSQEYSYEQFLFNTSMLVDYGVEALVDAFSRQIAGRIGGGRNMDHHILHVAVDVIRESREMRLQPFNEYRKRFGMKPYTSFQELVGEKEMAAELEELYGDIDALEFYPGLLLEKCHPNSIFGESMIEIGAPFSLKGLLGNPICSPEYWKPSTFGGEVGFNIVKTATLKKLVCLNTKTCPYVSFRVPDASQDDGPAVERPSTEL

Regarding `CC(C)Cc1ccc(C(C)C(=O)O)cc1` (stereo not given) [IBUPROFEN], the Activity in the data set on Rattus norvegicus [1] is recorded as 12 mm.

Take `CNc1nc(N(C)C)c(C(=O)/C(=N/OC)C(=O)OC)s1`: the inhibition in data set [2] was 19.5%; in data set [5], -6.25%. Further, the Activity is given as 72% in the data set with Rattus norvegicus [3]; 90% in the data set on Rattus norvegicus [4]; 66% with Rattus norvegicus [6]; 96% with Rattus norvegicus [7]; 95% with Rattus norvegicus [8]; 83% with Rattus norvegicus [9].

As to `CCOC(=O)Nc1nc(C)c(/C(=N\O)c2ccc(S(C)(=O)=O)cc2)s1`, the inhibition in data set [2] was 8.91%; in [5], -3.61%. Further, the Activity came out at 47% in the data set on Rattus norvegicus [3]; 78% in the data set with Rattus norvegicus [4]; 5% in the data set on Rattus norvegicus [6]; 29% with Rattus norvegicus [7]; 72% in the data set on Rattus norvegicus [8]; 69% in the data set with Rattus norvegicus [9].

Turning to `CS(=O)(=O)c1ccc(C2=C(c3ccccc3)C(=O)OC2)cc1` [ROFECOXIB], the Activity was determined as 30% in the data set with Rattus norvegicus [10]; 40% in the data set on Rattus norvegicus [11]; 32% with Rattus norvegicus [12]; 29% with Rattus norvegicus [13]; 35% with Rattus norvegicus [14]; 39% in the data set with Rattus norvegicus [15].

In the case of `CC(=O)Oc1ccccc1C(=O)O` [ASPIRIN], the Activity in the data set on Rattus norvegicus [1] was 5 mm.

On to `COC(=O)Nc1nc(N(C)C)c(C(=O)c2ccc(S(C)(=O)=O)cc2)s1`, for which the values for the inhibition in data set [2] and in [5] were 15.2% and 4.13%, respectively. The Activity with Rattus norvegicus [3] was 43%; in the data set with Rattus norvegicus [4] it was 40%; with Rattus norvegicus [6], 0%; with Rattus norvegicus [7], 29%; in the data set with Rattus norvegicus [8] it was 26%; in the data set on Rattus norvegicus [9], 30%.

For the compound `C[C@@H]1C[C@H]2[C@@H]3CCC4=CC(=O)C=C[C@]4(C)[C@@]3(F)[C@@H](O)C[C@]2(C)[C@@]1(O)C(=O)CO` [DEXAMETHASONE], the Activity in the data set on Rattus norvegicus [16] turned out to be 89%; in the data set on Rattus norvegicus [17] it was 92%; in the data set on Rattus norvegicus [18], 70%; with Rattus norvegicus [19], 85%; in the data set on Rattus norvegicus [20] it was 94%; in the data set on Rattus norvegicus [21], 96%.

For `CS(=O)(=O)c1ccc(C(=O)c2sc(N3CCOCC3)nc2-c2ccccc2)cc1`, the figures for the inhibition in data set [2] and in data set [5] were 10.4% and -5.91%, respectively. For the same compound, the Activity amounted to 38% in the data set on Rattus norvegicus [3]; 44% with Rattus norvegicus [4]; 27% in the data set with Rattus norvegicus [6]; 88% in the data set on Rattus norvegicus [7]; 42% with Rattus norvegicus [8]; 63% in the data set with Rattus norvegicus [9].

In the case of `O=C(Nc1nc(-c2ccccc2)c(C(=O)C(=O)c2sc(NC(=O)c3ccccc3)nc2-c2ccccc2)s1)c1ccccc1`, the Activity in the data set with Rattus norvegicus [1] is on record as 12 mm; in the data set with Rattus norvegicus [3], 38%; with Rattus norvegicus [4] it was 92%; with Rattus norvegicus [6] it was 41%; in the data set with Rattus norvegicus [7], 88%; with Rattus norvegicus [8] it was 84%. The Activity in the data set with Rattus norvegicus [9] is on record as 73%. For the same compound, the inhibition in data set [2] worked out at 19.3%; in data set [5], 6.31%.
